According to ChEMBL document CHEMBL1201862, “PubChem BioAssay data set” (2004):
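Protocol summary: plate cells (96-well), add compound at 5 concentrations, incubate 48 h, interpolate endpoints linearly. Here, GI50 denotes the concentration required for 50% inhibition of growth.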 Active and inactive are the calls of the source. Rule as the data show it: active = GI50 up to about 1.1 µM and inactive = higher.

How the values were obtained:
Assay in all cases: NCI anticancer screen, dose series, 48 h
[1] = tested on: 786-0
[2] = tested on: CAKI-1
[3] = tested on: COLO 205
[4] = tested on: HL-60
[5] = tested on: HOP-92
[6] = tested on: K562
[7] = tested on: LOX IMVI
[8] = tested on: MDA-MB-231
[9] = tested on: MDA-N
[10] = tested on: MOLT-4
[11] = tested on: NCI-H23
[12] = tested on: NCI/ADR-RES
[13] = tested on: OVCAR-3
[14] = tested on: RXF 393
[15] = tested on: SF-539
[16] = tested on: SK-MEL-28
[17] = tested on: SNB-75
[18] = tested on: SW-620
[19] = tested on: T47D
[20] = tested on: UO-31

## CC(C)NC(=O)OCc1c(COC(=O)NC(C)C)c(-c2ccc[n+](COC(=O)C3CCCCC3)c2)n2c1CCC2
[1]
  GI50: 28.1 µM (inactive)
[2]
  GI50: 20.7 µM (inactive)
[3]
  GI50: 93.1 µM (inactive)
[4]
  GI50: > 100 µM (inactive)
[5]
  GI50: 39.4 µM (inactive)
[6]
  GI50: > 100 µM (inactive)
[7]
  GI50: 31.6 µM (inactive)
[8]
  GI50: 40.5 µM (inactive)
[9]
  GI50: > 100 µM (inactive)
[10]
  GI50: 45.5 µM (inactive)
[11]
  GI50: 28.6 µM (inactive)
[12]
  GI50: 60 µM (inactive)
[13]
  GI50: > 100 µM (inactive)
[14]
  GI50: 38.9 µM (inactive)
[15]
  GI50: 35.8 µM (inactive)
[16]
  GI50: > 100 µM (inactive)
[17]
  GI50: 46.8 µM (inactive)
[18]
  GI50: 57.4 µM (inactive)
[19]
  GI50: 57.8 µM (inactive)
[20]
  GI50: 40.6 µM (inactive)

## O=[N+]([O-])c1cc2oc(CSc3ccccc3)nc2cc1Cl
[1]
  GI50: 34.6 µM (inactive)
[2]
  GI50: 29 µM (inactive)
[3]
  GI50: 21.7 µM (inactive)
[4]
  GI50: 30.3 µM (inactive)
[5]
  GI50: 26.6 µM (inactive)
[6]
  GI50: 36.2 µM (inactive)
[7]
  GI50: 35.3 µM (inactive)
[8]
  GI50: 32.2 µM (inactive)
[9]
  GI50: 35 µM (inactive)
[10]
  GI50: 22.3 µM (inactive)
[11]
  GI50: 26.7 µM (inactive)
[12]
  GI50: 12.9 µM (inactive)
[13]
  GI50: 30 µM (inactive)
[14]
  GI50: 26.4 µM (inactive)
[15]
  GI50: 32.7 µM (inactive)
[16]
  GI50: 35.2 µM (inactive)
[17]
  GI50: 26.1 µM (inactive)
[18]
  GI50: 43.9 µM (inactive)
[19]
  GI50: 24.9 µM (inactive)
[20]
  GI50: 35.9 µM (inactive)

## O=C(CC1(O)C(=O)Nc2c(Cl)ccc(Cl)c21)c1ccco1 (stereo not given)
[1]
  GI50: 15.5 µM (inactive)
[2]
  GI50: 26.1 µM (inactive)
[3]
  GI50: 17.5 µM (inactive)
[4]
  GI50: 14.7 µM (inactive)
[5]
  GI50: 22.3 µM (inactive)
[6]
  GI50: > 10 µM (inactive)
[7]
  GI50: 10.9 µM (inactive)
[8]
  GI50: 25.5 µM (inactive)
[9]
  GI50: 3.63 µM (inactive)
[10]
  GI50: 24.9 µM (inactive)
[11]
  GI50: 15.2 µM (inactive)
[12]
  GI50: 23.7 µM (inactive)
[13]
  GI50: 13.5 µM (inactive)
[14]
  GI50: 19.4 µM (inactive)
[15]
  GI50: 27.9 µM (inactive)
[16]
  GI50: 19.5 µM (inactive)
[17]
  GI50: 27 µM (inactive)
[18]
  GI50: 20.1 µM (inactive)
[19]
  GI50: 35.6 µM (inactive)
[20]
  GI50: 35.8 µM (inactive)

## CC[C@@H](/C=C\CCC(=O)C[C@H](O)CCC=C(C)C)O[Si](C(C)C)(C(C)C)C(C)C
[1]
  GI50: > 100 µM (inactive)
[2]
  GI50: > 100 µM (inactive)
[3]
  GI50: 71.6 µM (inactive)
[4]
  GI50: 46 µM (inactive)
[5]
  GI50: 81.7 µM (inactive)
[6]
  GI50: 54.5 µM (inactive)
[7]
  GI50: 90.8 µM (inactive)
[8]
  GI50: > 100 µM (inactive)
[9]
  GI50: 88.9 µM (inactive)
[10]
  GI50: > 100 µM (inactive)
[11]
  GI50: > 100 µM (inactive)
[12]
  GI50: > 100 µM (inactive)
[13]
  GI50: > 100 µM (inactive)
[14]
  GI50: 83.9 µM (inactive)
[15]
  GI50: > 100 µM (inactive)
[16]
  GI50: > 100 µM (inactive)
[17]
  GI50: > 100 µM (inactive)
[18]
  GI50: > 100 µM (inactive)
[19]
  GI50: 55.5 µM (inactive)
[20]
  GI50: > 100 µM (inactive)

## Cc1ccc(OCC2OC(n3cnc4c(Cl)nc(N)nc43)CC2Oc2ccc(C)cc2)cc1 (stereo not given)
[1]
  GI50: 55.5 µM (inactive)
[2]
  GI50: 1.76 µM (inactive)
[3]
  GI50: 68.4 µM (inactive)
[4]
  GI50: 13.9 µM (inactive)
[5]
  GI50: 11 µM (inactive)
[6]
  GI50: 29.4 µM (inactive)
[7]
  GI50: 47.9 µM (inactive)
[8]
  GI50: 22.4 µM (inactive)
[9]
  GI50: 7.93 µM (inactive)
[10]
  GI50: 25.2 µM (inactive)
[11]
  GI50: 19.2 µM (inactive)
[12]
  GI50: 34.4 µM (inactive)
[13]
  GI50: 21.6 µM (inactive)
[14]
  GI50: 39.9 µM (inactive)
[15]
  GI50: > 55.7 µM (inactive)
[16]
  GI50: > 51.4 µM (inactive)
[17]
  GI50: > 70.8 µM (inactive)
[18]
  GI50: > 55.3 µM (inactive)
[19]
  GI50: 20.3 µM (inactive)
[20]
  GI50: 4.58 µM (inactive)

## c1ccc(COC2NCCN2Cc2ccccc2)cc1 (stereo not given)
[1]
  GI50: > 100 µM (inactive)
[2]
  GI50: > 100 µM (inactive)
[3]
  GI50: > 100 µM (inactive)
[4]
  GI50: 69 µM (inactive)
[5]
  GI50: > 100 µM (inactive)
[6]
  GI50: > 100 µM (inactive)
[7]
  GI50: > 100 µM (inactive)
[8]
  GI50: > 100 µM (inactive)
[9]
  GI50: > 100 µM (inactive)
[10]
  GI50: > 100 µM (inactive)
[11]
  GI50: > 100 µM (inactive)
[12]
  GI50: 84.5 µM (inactive)
[13]
  GI50: > 100 µM (inactive)
[14]
  GI50: > 100 µM (inactive)
[15]
  GI50: > 100 µM (inactive)
[16]
  GI50: > 100 µM (inactive)
[17]
  GI50: 97.7 µM (inactive)
[18]
  GI50: > 100 µM (inactive)
[19]
  GI50: > 100 µM (inactive)
[20]
  GI50: > 100 µM (inactive)

## C[n+]1c2ccccc2n2c3ccccc3c(NCCCN3CCOCC3)c(C#N)c21
[1]
  GI50: 1.04 µM (active)
[2]
  GI50: 2.45 µM (inactive)
[3]
  GI50: 0.891 µM (active)
[4]
  GI50: 8.13 µM (inactive)
[5]
  GI50: 62.8 µM (inactive)
[6]
  GI50: 1.73 µM (inactive)
[7]
  GI50: 0.839 µM (active)
[8]
  GI50: 0.804 µM (active)
[9]
  GI50: 1.04 µM (active)
[10]
  GI50: 0.498 µM (active)
[11]
  GI50: 1.29 µM (inactive)
[12]
  GI50: > 41.4 µM (inactive)
[13]
  GI50: 2.61 µM (inactive)
[14]
  GI50: 1.37 µM (inactive)
[15]
  GI50: 0.556 µM (active)
[16]
  GI50: 3.32 µM (inactive)
[17]
  GI50: 2.23 µM (inactive)
[18]
  GI50: 0.849 µM (active)
[19]
  GI50: 2.32 µM (inactive)
[20]
  GI50: 2.95 µM (inactive)

## CN1C(=O)[C@H](c2c[nH]c3ccccc23)[C@H](c2c[nH]c3ccccc23)C1=O
[1]
  GI50: > 45.2 µM (inactive)
[2]
  GI50: 2.2 µM (inactive)
[3]
  GI50: 1.33 µM (inactive)
[4]
  GI50: 5.13 µM (inactive)
[5]
  GI50: > 35.9 µM (inactive)
[6]
  GI50: 28.9 µM (inactive)
[7]
  GI50: 17.7 µM (inactive)
[8]
  GI50: 4.4 µM (inactive)
[9]
  GI50: 38.1 µM (inactive)
[10]
  GI50: 21.6 µM (inactive)
[11]
  GI50: 22.3 µM (inactive)
[12]
  GI50: 27 µM (inactive)
[13]
  GI50: 19.5 µM (inactive)
[14]
  GI50: 26.7 µM (inactive)
[15]
  GI50: 21.7 µM (inactive)
[16]
  GI50: 33.7 µM (inactive)
[17]
  GI50: 34.7 µM (inactive)
[18]
  GI50: 37.1 µM (inactive)
[19]
  GI50: 87.9 µM (inactive)
[20]
  GI50: 15.5 µM (inactive)

## Cc1cccc(/C=N/NC(=S)N2CCCCCC2)n1
[1]
  GI50: 0.0724 µM (active)
[2]
  GI50: 0.369 µM (active)
[3]
  GI50: < 0.0269 µM (active)
[4]
  GI50: < 0.01 µM (active)
[5]
  GI50: 0.519 µM (active)
[6]
  GI50: < 0.01 µM (active)
[7]
  GI50: 0.0989 µM (active)
[8]
  GI50: < 0.01 µM (active)
[9]
  GI50: 0.406 µM (active)
[10]
  GI50: < 0.01 µM (active)
[11]
  GI50: 0.299 µM (active)
[12]
  GI50: < 0.01 µM (active)
[13]
  GI50: < 0.01 µM (active)
[14]
  GI50: 0.515 µM (active)
[15]
  GI50: 0.205 µM (active)
[16]
  GI50: 0.608 µM (active)
[17]
  GI50: 0.135 µM (active)
[18]
  GI50: 0.0462 µM (active)
[19]
  GI50: < 0.01 µM (active)
[20]
  GI50: 0.103 µM (active)
